Active and inactive are the calls of the source. The calls are words filed in the database; no cut-off is given here.
How the values were obtained:
Mus musculus [1] = assay: Neurotoxicity in Mus musculus Swiss albino (mouse) assessed as motor impairment at 600 mg/kg, ip measured for 1 min by rotarod test; assay type: toxicity, organism-based; set-up: dose 600 mg/kg, route intraperitoneal; conditions: in vivo
Mus musculus [2] = assay: Neurotoxicity in Mus musculus Swiss albino (mouse) assessed as motor impairment at 100 mg/kg, ip measured for 1 min by rotarod test; assay type: toxicity, organism-based; set-up: dose 100 mg/kg, route intraperitoneal; conditions: in vivo
[3] = Neurotoxicity in ip dosed Mus musculus Swiss albino (mouse) assessed as motor impairment measured after 0.5 hr post compound treatment for 1 min by rotarod test; assay type: toxicity, organism-based; conditions: in vivo
[4] = Protective index, ratio of TD50 for neurotoxicity in Mus musculus Swiss albino (mouse) to ED50 for anticonvulsant activity in Mus musculus Swiss albino (mouse) measured 0.5 hr post compound treatment; assay type: toxicity, organism-based; conditions: in vivo, read-out: Ratio TD50/ED50
Mus musculus [5] = assay: Anticonvulsant activity in ip dosed Mus musculus Swiss albino (mouse) assessed as protection against maximal electroshock-induced seizures measured after 0.5 hr post compound treatment; assay type: functional
Mus musculus [6] = assay: Anticonvulsant activity in Mus musculus Swiss albino (mouse) assessed as protection against maximal electroshock-induced seizures at 30 mg/kg, ip measured after 4 hr post compound treatment; assay type: functional, organism-based; set-up: dose 30 mg/kg
Mus musculus [7] = assay: Anticonvulsant activity in Mus musculus Swiss albino (mouse) assessed as protection against maximal electroshock-induced seizures at 30 mg/kg, ip measured after 0.5 hr post compound treatment; assay type: functional, organism-based; set-up: dose 30 mg/kg
Mus musculus [8] = assay: Anticonvulsant activity in Mus musculus Swiss albino (mouse) assessed as protection against subcutaneous pentylenetetrazol-induced clonic spasms at 300 mg/kg, ip after 4 hr post compound treatment; assay type: functional, organism-based; set-up: dose 300 mg/kg
Mus musculus [9] = assay: Anticonvulsant activity in Mus musculus Swiss albino (mouse) assessed as protection against subcutaneous pentylenetetrazol-induced clonic spasms at 300 mg/kg, ip after 0.5 hr post compound treatment; assay type: functional, organism-based; set-up: dose 300 mg/kg
Mus musculus [10] = assay: Anticonvulsant activity in Mus musculus Swiss albino (mouse) assessed as protection against maximal electroshock-induced seizures at 300 mg/kg, ip measured after 4 hr post compound treatment; assay type: functional, organism-based; set-up: dose 300 mg/kg
Mus musculus [11] = assay: Anticonvulsant activity in Mus musculus Swiss albino (mouse) assessed as protection against maximal electroshock-induced seizures at 300 mg/kg, ip measured after 0.5 hr post compound treatment; assay type: functional, organism-based; set-up: dose 300 mg/kg
Mus musculus [12] = assay: Anticonvulsant activity in Mus musculus Swiss albino (mouse) assessed as protection against subcutaneous pentylenetetrazol-induced clonic spasms at 30 mg/kg, ip after 4 hr post compound treatment; assay type: functional, organism-based; set-up: dose 30 mg/kg
Mus musculus [13] = assay: Anticonvulsant activity in Mus musculus Swiss albino (mouse) assessed as protection against subcutaneous pentylenetetrazol-induced clonic spasms at 30 mg/kg, ip after 0.5 hr post compound treatment; assay type: functional, organism-based; set-up: dose 30 mg/kg
Mus musculus [14] = assay: Anticonvulsant activity in ip dosed Mus musculus Swiss albino (mouse) assessed as protection against maximal electroshock-induced seizures measured; assay type: functional
[15] = Protective index, ratio of TD50 for neurotoxicity in Mus musculus Swiss albino (mouse) to ED50 for anticonvulsant activity in Mus musculus Swiss albino (mouse); assay type: toxicity, organism-based; conditions: in vivo, read-out: Ratio TD50/ED50

Compound | Activity (Mus musculus [1]) | Activity (Mus musculus [2]) | Activity (Mus musculus [6]) | Activity (Mus musculus [7]) | Activity (Mus musculus [8]) | Activity (Mus musculus [9]) | Activity (Mus musculus [10]) | Activity (Mus musculus [11]) | further results
NC(=O)Cc1ccccc1-c1cccnc1 | Toxic | Non-toxic | Active | Active |  |  |  |  | TD50 at 0.5 hr [3]: 215 mg/kg; selectivity ratio at 0.5 h [4]: 26; ED50 (Mus musculus [5]): 8.28 mg/kg
O=C(NCc1ccccc1-c1cccnc1)NC1CCCCC1 | Toxic | Non-toxic |  |  | inactive | inactive | inactive | inactive | 
NC(=O)N1c2ccccc2C=Cc2ccccc21 [CARBAMAZEPINE] | Toxic | Non-toxic | Active | Active |  |  |  |  | 
CN1C(=O)CN=C(c2ccccc2)c2cc(Cl)ccc21 [DIAZEPAM] | Toxic | Non-toxic |  |  |  |  |  |  | Activity (Mus musculus [12]): Active; Activity (Mus musculus [13]): Active
O=C1CCCN1C(=O)Cc1ccccc1Nc1ccccc1 | Toxic | Non-toxic |  |  |  |  |  |  | ED50 (Mus musculus [14]): 8 mg/kg; selectivity ratio [15]: 87.5
O=C1NC(=O)C(c2ccccc2)(c2ccccc2)N1 [PHENYTOIN] | Toxic | Non-toxic | Active | Active |  |  |  |  | 
CC(C)(C)NC(=O)NCc1ccccc1-c1cccnc1 | Toxic | Non-toxic |  |  | inactive | inactive | inactive | inactive | 
NC(=O)NNC(=O)Cc1ccccc1-c1cccnc1 | Toxic | Non-toxic |  |  | inactive | inactive | inactive | inactive | 
CCC1(c2ccccc2)C(=O)NC(=O)NC1=O [PHENOBARBITAL] | Toxic | Non-toxic |  |  |  |  |  |  | Activity (Mus musculus [12]): Active; Activity (Mus musculus [13]): Active
NC(=S)NNC(=O)Cc1ccccc1-c1cccnc1 | Toxic | Non-toxic |  |  | inactive | inactive | inactive | inactive | 
